Our source for the Activity and IC50 values is ChEMBL document CHEMBL5113433, “Biological evaluation for anti-inflammatory effect of africane-type sesquiterpenoids” (Bioorg Med Chem, 2022).

pIC50: −log10 of the molar value. The source made the active and inactive calls. No cut-off for these calls is given here.

The subject of data set [1] is RAW264.7. Briefly: Antiinflammatory activity in LPS-induced mouse RAW264.7 cells assessed as decrease in IL-6 expression at 6 uM pretreated for 2 hrs followed by stimulation with LPS for 6 hrs by RT-PCR analysis. The format is functional, cell-based.
Data set [2] relates to RAW264.7. Briefly: Antiinflammatory activity in LPS-induced mouse RAW264.7 cells assessed as decrease in IL-1beta expression at 6 uM pretreated for 2 hrs followed by stimulation with LPS for 6 hrs by Western blot analysis. The format is functional, cell-based.
The test system of data set [3] is RAW264.7. Description: Antiinflammatory activity in LPS-induced mouse RAW264.7 cells assessed as decrease in COX-2 expression pretreated for 2 hrs followed by stimulation with LPS for 22 hrs by Western blot analysis. The format is functional, cell-based.
In data set [4] the test system is RAW264.7. Description: Antiinflammatory activity in LPS-induced mouse RAW264.7 cells assessed as decrease in IL-1beta expression at 6 uM pretreated for 2 hrs followed by stimulation with LPS for 6 hrs by RT-PCR analysis. The format is functional, cell-based.
For data set [5], the system named is RAW264.7. Briefly: Antiinflammatory activity in LPS-induced mouse RAW264.7 cells assessed as decrease in COX-2 expression at 10 uM pretreated for 2 hrs followed by stimulation with LPS for 22 hrs by Western blot analysis. The format is functional, cell-based. Particulars: time 24.0 hrs.
Data set [6] deals with RAW264.7. Briefly: Antiinflammatory activity in LPS-induced mouse RAW264.7 cells assessed as decrease in IL-6 expression at 6 uM pretreated for 2 hrs followed by stimulation with LPS for 6 hrs by Western blot analysis. The format is functional, cell-based. Particulars: time 8.0 hrs.
Data set [7] can be described thus: Cytotoxicity against mouse RAW264.7 cells assessed as cell viability after 24 hrs by MTT assay. The format is toxicity, cell-based.

Turning to `C=CCC(C)(C)C[C@@H]1C(=O)CC[C@H]1C(=C)C`, the result in data set [1], in data set [2], in data set [4], in data set [5] and in data set [6] was Active. In addition, the pIC50 in data set [3] (Mus musculus, RAW264.7) is 5.09. Moreover, in data set [7], the IC50 at 24 h is more than 10 µM.

As to `CC(=O)OCC1(O)CCC2C1CC(C)(C)CC1CC12C` (single isomer, unassigned; (-)) [listing 1 of 2 here], the outcome in data set [1], in data set [2], in data set [4], in data set [5] and in data set [6] was Active.

`CC(=O)OC[C@@]1(O)CC[C@@H]2[C@@H]1CC(C)(C)C[C@H]1C[C@]12C`: the outcome in data set [1], in data set [2], in data set [4], in data set [5] and in data set [6] was Active. In addition, the pIC50 in data set [3] (Mus musculus, RAW264.7) was 5.34. Besides, the IC50 at 24 h in data set [7] is more than 10 µM.

For `CC(=O)OCC1(O)CCC2C1CC(C)(C)CC1CC12C` (single isomer, unassigned; (+)) [listing 1 of 2 here], the negative-log IC50 (pIC50) in data set [3] (Mus musculus, RAW264.7) was 5.18. For the same molecule, the IC50 at 24 h in data set [7] was more than 10 µM.

Turning to `CC(=O)OCC1(O)CCC2C1CC(C)(C)CC1CC12C` (single isomer, unassigned; (-)) [listing 2 of 2 here], the pIC50 in data set [3] (raw264.7) is 5.09.

As to `CC(=O)OCC1(O)CCC2C1CC(C)(C)CC1CC12C` (single isomer, unassigned; (+)) [listing 2 of 2 here], the result in data set [1], in data set [2], in data set [4], in data set [5] and in data set [6] was Active.

Take `CC(=O)OC[C@]1(O)CC[C@@H]2[C@@H]1CC(C)(C)C[C@H]1C[C@]12C`: in data set [5], the result was Active.
